The nature of one series: physchem. Conditions: water.
Series [1] in a line: Dissolution rate of finely powdered substance under USP XXI conditions (apparatus 2) in artificial intestinal juice. Particulars: pH 7.

Structures are written as SMILES. Values after ≈ are worked out from the molar mass of the structure shown. Structures can show the parent of a compound that is named as a salt.

What is called solubility is the dissolved amount per volume that the medium holds. Read a high solubility as a readily soluble substance. Turning to `COc1cccc([C@@]2(O)CCCC[C@@H]2CN(C)C)c1` (racemic) [I-Hydrochlorid, 1e-(m-Methoxyphenyl)-2e-dimethylaminomethyl-cyclohexan-1-(a)-ol], the solubility in “physchem” came out at 298 mg/mL. In series [1], the “gelöst / in Lösung gegangen nach 2 Minuten” value is reported as more than 97%.

For `O=C(O)Cc1ccccc1Nc1c(Cl)cccc1Cl` [II-Natriumsalz, 2-(2ʹ,6ʹ-Dichloranilino)-phenylessigsäure], the solubility in the series “Solubility in water” was approximately 30 mg/mL (≈ 101 mM).
